Experimental data taken from ChEMBL document CHEMBL1142746, “Triaryl bis-sulfones as cannabinoid-2 receptor ligands: SAR studies” (Bioorg Med Chem Lett, 2005).

Assays:
[1] = molecular target: Cannabinoid receptor (Homo sapiens) (UniProt P34972+P21554); experiment: Ratio of inhibition against Cannabinoid receptor 1 and Cannabinoid receptor 2; format: protein assay
Cannabinoid receptor 2 = Cannabinoid receptor 2 (Homo sapiens, UniProt P34972); experiment: Inhibition constant against Cannabinoid receptor 2
Cannabinoid receptor 2, sequence (P34972 whole entry): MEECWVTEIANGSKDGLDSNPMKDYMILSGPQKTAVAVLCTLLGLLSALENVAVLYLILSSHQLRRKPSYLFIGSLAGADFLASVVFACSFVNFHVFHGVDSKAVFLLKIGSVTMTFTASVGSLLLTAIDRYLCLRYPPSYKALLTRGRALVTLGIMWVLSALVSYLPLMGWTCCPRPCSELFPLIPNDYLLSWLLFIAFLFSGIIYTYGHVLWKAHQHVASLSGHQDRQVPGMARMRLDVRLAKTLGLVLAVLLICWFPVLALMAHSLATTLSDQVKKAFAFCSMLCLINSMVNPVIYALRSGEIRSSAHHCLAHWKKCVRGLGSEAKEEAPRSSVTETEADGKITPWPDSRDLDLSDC

Cannabinoid receptor (Homo sapiens), sequence (P21554 whole entry, looked up): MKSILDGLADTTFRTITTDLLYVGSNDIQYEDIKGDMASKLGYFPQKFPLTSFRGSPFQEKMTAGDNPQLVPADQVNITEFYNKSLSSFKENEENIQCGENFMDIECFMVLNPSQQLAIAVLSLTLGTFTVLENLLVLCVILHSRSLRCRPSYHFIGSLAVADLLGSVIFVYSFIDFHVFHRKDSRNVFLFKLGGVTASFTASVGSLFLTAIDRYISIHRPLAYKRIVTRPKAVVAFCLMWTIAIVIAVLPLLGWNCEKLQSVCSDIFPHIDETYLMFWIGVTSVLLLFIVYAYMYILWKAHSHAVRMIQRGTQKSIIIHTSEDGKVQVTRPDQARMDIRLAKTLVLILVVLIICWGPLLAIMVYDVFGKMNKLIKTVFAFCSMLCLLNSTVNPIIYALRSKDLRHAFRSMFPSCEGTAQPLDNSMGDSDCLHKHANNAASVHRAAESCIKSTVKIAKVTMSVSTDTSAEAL
Cannabinoid receptor (Homo sapiens), sequence (P34972 whole entry, looked up): as the sequence (P34972 whole entry) above

| SMILES | Selectivity [1] | Ki (Cannabinoid receptor 2) |
| --- | --- | --- |
| Cc1ccc(S(=O)(=O)c2ccc([C@H](C)NS(C)(=O)=O)cc2)c(S(=O)(=O)c2ccccc2F)c1 | 1740 | 0.5 nM |
| C[C@H](NS(C)(=O)=O)c1ccc(S(=O)(=O)c2ccc(Cl)cc2C(C)(O)c2ccc(Cl)cc2)cc1 (stereo not given in full) | 25 | 230 nM |
| CCC(c1ccc([C@H](C)NS(C)(=O)=O)cc1)c1ccc(Cl)cc1S(=O)(=O)c1ccc(Cl)cc1 (stereo not given in full) | 48 | 76 nM |
| C[C@H](NS(C)(=O)=O)c1ccc(S(=O)(=O)c2ccc(Cl)cc2S(=O)(=O)c2ccccc2F)cc1 | 4390 | 1 nM |
| C[C@H](NS(C)(=O)=O)c1ccc(S(=O)(=O)c2ccc(Cl)cc2S(=O)(=O)c2ccccc2OC(F)(F)F)cc1 | 134 | 128 nM |
| COc1ccc(S(=O)(=O)c2cc(OC)ccc2Cc2ccc([C@H](C)NS(C)(=O)=O)cc2)cc1 | 1300 | 0.6 nM |
| C[C@H](NS(C)(=O)=O)c1ccc(S(=O)(=O)c2ccc(Cl)cc2S(=O)(=O)c2cccc(Cl)c2)cc1 | 238 | 23 nM |
| C[C@H](NS(C)(=O)=O)c1ccc(S(=O)(=O)c2ccc(Cl)cc2S(=O)(=O)c2ccc(Cl)cc2)cc1 | 687 | 10 nM |
| C[C@H](NS(C)(=O)=O)c1ccc(Cc2ccc(OC(F)(F)F)cc2S(=O)(=O)c2ccccc2F)cc1 | 1180 | 0.4 nM |
| C[C@H](NS(C)(=O)=O)c1ccc(Cc2ccc(OC(F)(F)F)cc2S(=O)(=O)c2ccccc2OC(F)(F)F)cc1 | 60 | 16 nM |
| C[C@H](NS(C)(=O)=O)c1ccc(S(=O)(=O)c2ccc(Cl)cc2Nc2ccc(Cl)cc2)cc1 | 5 | 278 nM |
| C[C@H](NS(C)(=O)=O)c1ccc(Cc2ccc(OC(F)(F)F)cc2S(=O)(=O)c2cccc(C(F)(F)F)c2)cc1 | 27 | 35 nM |
| COc1ccc(S(=O)(=O)c2cc(OC)ccc2S(=O)(=O)c2ccc(C(C)(C)NS(C)(=O)=O)cc2)cc1 | 282 | 6 nM |
| C[C@H](NS(C)(=O)=O)c1ccc(S(=O)(=O)c2ccccc2S(=O)(=O)c2ccc(Cl)cc2)cc1 | 127 | 58 nM |
| C[C@H](NS(C)(=O)=O)c1ccc(Cc2ccc(C(F)(F)F)cc2S(=O)(=O)c2c(F)cccc2F)cc1 | 584 | 1.8 nM |
| C[C@H](NS(C)(=O)=O)c1ccc(S(=O)(=O)c2ccc(O)cc2S(=O)(=O)c2ccc(Cl)cc2)cc1 | 2320 | 13 nM |
| C[C@H](NS(C)(=O)=O)c1ccc(S(=O)(=O)c2ccc(Cl)cc2Cc2ccc(Cl)cc2)cc1 | 11 | 164 nM |
| C[C@H](NS(C)(=O)=O)c1ccc(Cc2ccc(C(F)(F)F)cc2S(=O)(=O)c2cccc(F)c2)cc1 | 438 | 3.5 nM |
| C[C@H](NS(C)(=O)=O)c1ccc(Cc2ccc(Cl)cc2S(=O)(=O)c2ccc(Cl)cc2)cc1 | 188 | 6.7 nM |
| C[C@H](NS(C)(=O)=O)c1ccc(S(=O)(=O)c2ccc(Cl)cc2Oc2ccc(Cl)cc2)cc1 | 3 | 983 nM |

| SMILES | Selectivity [1] | Ki (Cannabinoid receptor 2) |
| --- | --- | --- |
| C[C@H](NS(C)(=O)=O)c1ccc(S(=O)(=O)c2ccc(OC3CCCC3)cc2S(=O)(=O)c2ccc(Cl)cc2)cc1 | 11 | 232 nM |
| CC(NS(C)(=O)=O)c1ccc(C(=O)c2ccc(OC(F)(F)F)cc2S(=O)(=O)c2ccccc2F)cc1 (stereo not given) | 28 | 179 nM |
| C[C@H](NS(C)(=O)=O)c1ccc(S(=O)(=O)c2ccccc2S(=O)(=O)c2ccccc2F)cc1 | 1450 | 9 nM |
| CO/N=C(\c1ccc([C@H](C)NS(C)(=O)=O)cc1)c1ccc(Cl)cc1S(=O)(=O)c1ccc(Cl)cc1 | 5 | 406 nM |
| C[C@H](NS(C)(=O)=O)c1ccc(S(=O)(=O)c2ccc(Cl)cc2C(=O)c2ccc(Cl)cc2)cc1 | 284 | 192 nM |
| C[C@H](NS(C)(=O)=O)c1ccc(S(=O)(=O)c2ccc(Cl)cc2C(C)(O)c2ccccc2F)cc1 (stereo not given in full) | 111 | 77 nM |
| CC(NS(C)(=O)=O)c1ccc(C(=O)c2ccc(Cl)cc2S(=O)(=O)c2ccc(Cl)cc2)cc1 (stereo not given) | 16 | 410 nM |
| COc1ccc(S(=O)(=O)c2cc(OC)ccc2S(=O)(=O)c2ccc([C@H](C)NS(C)(=O)=O)cc2)cc1 | 2260 | 0.4 nM |
| C[C@H](NS(C)(=O)=O)c1ccc(S(=O)(=O)c2ccc(Cl)cc2S(=O)(=O)c2ccccc2)cc1 | 1940 | 2 nM |
| COc1ccc(S(=O)(=O)c2ccc([C@H](C)NS(C)(=O)=O)cc2)c(S(=O)(=O)c2ccccc2)c1 | 2480 | 0.6 nM |
| COc1ccc(S(=O)(=O)c2cc(OC)ccc2S(=O)(=O)c2ccc([C@@H](C)NS(C)(=O)=O)cc2)cc1 | 105 | 30 nM |
| C[C@H](NS(C)(=O)=O)c1ccc(S(=O)(=O)c2ccc(Cl)cc2S(=O)(=O)c2ccccc2Cl)cc1 | 1780 | 6 nM |
| COc1ccc(S(=O)(=O)c2cc(OC)ccc2S(=O)(=O)c2ccc(CNS(C)(=O)=O)cc2)cc1 | 2170 | 1.3 nM |
| C[C@H](NS(C)(=O)=O)c1ccc(S(=O)(=O)c2ccc(C(F)(F)F)cc2S(=O)(=O)c2ccc(Cl)cc2)cc1 | 558 | 8 nM |
| C[C@H](NS(C)(=O)=O)c1ccc(S(=O)(=O)c2ccc(C(F)(F)F)cc2S(=O)(=O)c2ccccc2F)cc1 | 3550 | 0.9 nM |
| COc1ccc(S(=O)(=O)c2ccc([C@H](C)NS(C)(=O)=O)cc2)c(S(=O)(=O)c2ccc(Cl)cc2)c1 | 1150 | 0.9 nM |
| C=C(c1ccccc1F)c1cc(Cl)ccc1S(=O)(=O)c1ccc([C@H](C)NS(C)(=O)=O)cc1 | 17 | 247 nM |
| COc1ccc(S(=O)(=O)c2cc(OC)ccc2C(=O)c2ccc([C@H](C)NS(C)(=O)=O)cc2)cc1 | 108 | 44 nM |
| C[C@H](NS(C)(=O)=O)c1ccc(Cc2ccc(C(F)(F)F)cc2S(=O)(=O)c2ccccc2F)cc1 | 674 | 1 nM |
| C=C(c1ccc([C@H](C)NS(C)(=O)=O)cc1)c1ccc(OC(F)(F)F)cc1S(=O)(=O)c1ccccc1F | 19 | 86 nM |
